According to US20130197043A1, “USE OF THE FETAL REPROGRAMMING OF A PPAR AGONIST” (SNU R&DB FOUNDATION, priority 2010, published 2013):

How the values were obtained:
PPAR δ-deficient cells = assay: Primary cell culture and real-time PCR gene expression analysis, PPAR δ-deficient cells; type: cell-based, mouse; settings: 300 nM
Description: However, it has not been reported that the PPARs response element (PPRE) is present at promoters of these three genes. Therefore, the present inventors resected the muscle of the mouse with the removal of PPAR δ gene and conducted primary culture, in order to verify whether or not the increases in expressions of the above three genes are PPAR δ-dependent. After hind legs of a five-day-old fetus was resected, primary culture was conducted by the same method as developed by Rando (Rando et al, J. Cell. Biol., 1994, 125, 1275-1287). Myoblast, after being cultured, was transferred to a 6-well plate, and then differentiated into myotube while being treated with 300 nM of PPAR δ agonist (CMDD1111). The differentiated myotube was further treated with 300 nM of PPAR δ agonist (CMDD1111) for 2 days, and then total RNA was extracted by using a TRIzol reagent (Gibco). The extracted RNA was subjected to reverse transcription, to synthesize cDNA, which was then used as a template for real-time PCR analysis.
As the result of real-time PCR analysis, expressions of PDK4 and CPT-1, known to be directly regulated by PPAR δ, were increased by 2.2 fold and 1.5 fold, respectively. However, there was no change in PPAR δ-deficient cells. This means that expressions of PDK4 and CPT-1 are PPAR δ-dependently regulated. […]

[1] = system: cytosolic calcium in differentiated muscle cells; assay: Analysis of cytosolic calcium (Flou4, confocal microscope); type: cell-based, mouse; settings: 300 nM, 10 mM caffeine, calcium-free Kreb solution
Description: An experiment using a calcium-specific dye reagent, Flou4(Molecular probe), was conducted in order to confirm the effect on concentration of cytosolic calcium by the changes of RYR, SERCA, and PLN. The experiment method is as follows. The isolated muscle cells were grown on a culture plate with an attached glass slide through primary culture, and then differentiated into myotube while being treated with 300 nM of PPAR δ agonist (CMDD1111). Flou4 (final concentration: 5 μM) dye reagent was put into the differentiated muscle cells, which were then cultured for 30 minutes. The calcium-free Kreb solution was used as a culture medium to measure the change of cytosolic calcium, and treatment with 10 mM of caffeine was conducted to activate calcium channels. Intracellular calcium ion change was measured by using a confocal microscope. As the measurement result, the retention time of cytosolic calcium was increased by 43% (592±60 versus 847±77 sec) in the muscle cell to which PPAR δ agonist (CMDD1111) was added (FIG. 13). The reason was that expressions of RYR regulating calcium efflux and PLN suppressing calcium influx in the sarcoplasmic membrane were increased by PPAR δ. […]

[2] = system: mice subjected to fetal reprogramming; assay: Body weight gain on high-fat feedstuff of fetal-reprogrammed mice; type: in vivo; settings: 13-week old mice, 35% fat feedstuff, 84 days
Excerpt: Lipometabolism has deep correlation with the occurrence of obesity and diabetes. Therefore, the present inventors checked the fetal reprogramming effect of PPAR δ on the occurrence of metabolic syndrome. The control group and administration group of 13-week old mice were fed with high-fat feedstuff (fat content: 35%) over a total of 84 days while being weighed once per week. As a result, it may be seen that, the body weight gain was suppressed by 8% in the mice subjected to fetal reprogramming by PPAR δ agonist compound (CMDD1111) as compared with the control group, as shown in FIG. 18.

[3] = system: mice subjected to fetal reprogramming; assay: Glucose tolerance test (GTT) of fetal-reprogrammed mice after high-fat feedstuff; type: in vivo; settings: GTT after 17 weeks high-fat feedstuff
Description: The present researchers conducted the glucose tolerance test (GTT) after the mice were fed with high-fat feedstuff for 17 weeks to induce diabetes. The experiment was conducted following the method proposed by Kelly, and challenged with over-night fasting in order to confirm the role thereof in the muscle. Glucose ([…]) was administered by using intraperitoneal injection, and then the blood glucose level change was measured for 2 hours. As a result, the fasting blood glucose level was lower, the maximum blood glucose concentration was lower, and the glucose clearance time was shorter in the mice of the administration group as compared with the mice of the control group (FIG. 19). At the same time, the insulin tolerance test was conducted (FIG. 20). To sum the above results up, it may be seen that animals subjected to fetal reprogramming by PPAR δ activation enhanced endurance due to an increase in slow muscle fibers and prevented and suppressed the occurrence of obesity and diabetes due to high-fat diet.

[4] = Maternal treatment: side effects, fetal body weight, growth, skeleton staining; type: in vivo, mice
Description: The present inventors used a method of administering a PPAR δ agonist to a pregnant mother (maternal treatment) in order to investigate the role of fetal reprogramming of PPAR δ during mammalian development. For the fetal reprogramming, the PPAR δ agonist was orally administered to pregnant mice at a concentration of 10 mg/kg every day, and a specific experiment method was summarized in FIG. 1.
Fertile female mice and male mice were bred, and then pregnancy or not was checked by plug confirmation. CMDD1111 was orally administered to pregnant female mice at a concentration of 10 mg/kg once per day every day for six weeks (gestation and lactation periods). Side effects due to the administered material were not observed during the gestation period. The weight of a fetus group administered with vehicle during the gestation period was 1.33±0.11 g, and the weight of a fetus group administered with CMDD1111 was 1.37±0.09 g. The weight difference between the two groups was not shown (FIG. 3). In addition, growth inhibition or promotion due to the administered material was not observed in the comparison results of growth rate of fetus for 3 weeks (FIG. 4). There was no difference in body weight between the two groups as adults (FIG. 5). Deformity due to the administered material was not observed in the skeleton staining results using Alizaren red S and Alician blue dye (FIG. 6).

## Cc1cc(SC(Cc2ccccc2)c2sc(-c3ccc(C(F)(F)F)cc3)nc2C)ccc1OCC(=O)O (stereo not drawn) [CMDD1111]
PPAR δ-deficient cells
  expressions of PDK4 and CPT-1: no change
[1]
  increase of retention time of cytosolic calcium: 43%
  retention time of cytosolic calcium: 847 ± 77 s
[2]
  body weight gain suppression versus control: 8%
[3]
  fasting blood glucose level versus control: lower
  glucose clearance time versus control: shorter
  maximum blood glucose concentration versus control: lower
[4]; 3 weeks
  growth inhibition or promotion (growth rate of fetus): not observed
[4]; Alizaren red S and Alician blue dye
  deformity in skeleton staining: not observed
[4]; as adults
  body weight versus vehicle group: no difference
[4]; gestation period, 10 mg/kg oral once per day
  side effects due to the administered material: not observed
[4]; immediately after birth, mother 10 mg/kg during gestation
  weight of fetus group: 1.37 ± 0.09 g
